Test results as given in ChEMBL document CHEMBL4622962, “Bromocriptine as a Novel Pharmacological Chaperone for Mucopolysaccharidosis IV A” (ACS Med Chem Lett, 2020).
Activity calls are given as the source filed them. The rule behind the calls is not given here.

Key:
[1] = target: T1, N-acetylgalactosamine-6-sulfatase (Homo sapiens) (UniProt P34059); assay: Chaperone activity at recombinant human GALNS expressed in HEK293 cells assessed as fold increase in extracellular enzyme activity using 4MUGPS as substrate at 1 uM incubated for 48 hrs by fluorescence assay relative to control; format: cell-based
T1 sequence (whole entry): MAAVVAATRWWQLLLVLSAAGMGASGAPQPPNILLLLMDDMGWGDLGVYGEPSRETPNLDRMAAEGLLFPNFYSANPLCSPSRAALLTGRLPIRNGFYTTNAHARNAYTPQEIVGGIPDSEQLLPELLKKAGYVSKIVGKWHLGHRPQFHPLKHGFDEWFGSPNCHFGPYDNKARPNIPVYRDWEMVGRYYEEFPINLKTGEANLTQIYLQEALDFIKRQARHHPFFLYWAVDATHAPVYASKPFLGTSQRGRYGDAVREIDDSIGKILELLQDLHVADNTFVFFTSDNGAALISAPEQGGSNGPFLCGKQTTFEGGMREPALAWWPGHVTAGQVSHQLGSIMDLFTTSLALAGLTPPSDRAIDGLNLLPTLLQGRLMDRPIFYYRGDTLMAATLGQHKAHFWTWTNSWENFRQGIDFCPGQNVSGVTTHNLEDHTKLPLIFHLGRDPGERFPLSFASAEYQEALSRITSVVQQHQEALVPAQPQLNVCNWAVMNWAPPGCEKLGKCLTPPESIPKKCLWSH

Homo sapiens [2] = species on record: Homo sapiens; assay: (§1) Chaperone activity at GALNS p.R386C/p.F285 deletion mutant in mucopolysaccharidosis IVA patient-derived fibroblasts GM00593 assessed as reduction in lysosomal mass by measuring mean fluorescence intensity at 10 uM incubated for 36 hrs by deep red Lysotracker based flow cytometric analysis (reference value: 61.8 +/- 8.4%); set-up: scale not given: the % may be the effect or the level left
Homo sapiens [3] = species on record: Homo sapiens; assay: (§2) Chaperone activity at GALNS p.R61W/p.W405_T406 deletion mutant in mucopolysaccharidosis patient-derived fibroblasts GM01361 assessed as reduction in lysosomal mass by measuring mean fluorescence intensity at 0.1 uM incubated for 36 hrs by deep red Lysotracker based flow cytometric analysis (reference value: 48.3 +/- 7.7%); set-up: scale not given: the % may be the effect or the level left
[4] = Total plasma concentration in parkinson's disease patients; format: ADME, cell-free; conditions: human
Homo sapiens [5] = species on record: Homo sapiens; assay: Chaperone activity at GALNS p.R61W/p.W405_T406 deletion mutant in mucopolysaccharidosis IVA patient-derived fibroblasts GM01361 assessed as enzyme activity using 4MUGPS as substrate at 1 to 10 uM incubated for 48 hrs by fluorescence assay
[6] = target: T1, N-acetylgalactosamine-6-sulfatase (Homo sapiens); assay: Inhibition of recombinant human GALNS expressed in Pichia pastoris at 0.001 to 50 uM using 4MUGPS as substrate incubated for 18 hrs by fluorescence assay relative to control
Homo sapiens [7] = species on record: Homo sapiens; assay: Chaperone activity at GALNS p.A393S mutant in mucopolysaccharidosis IVA patient-derived fibroblasts GM00958 assessed as enzyme activity using 4MUGPS as substrate at 0.001 to 10 uM incubated for 48 hrs by fluorescence assay
Homo sapiens [8] = species on record: Homo sapiens; assay: as §1, with “1” for “10”; set-up: scale not given: the % may be the effect or the level left
Homo sapiens [9] = species on record: Homo sapiens; assay: Chaperone activity at GALNS p.R386C/p.F285 deletion mutant in mucopolysaccharidosis IVA patient-derived fibroblasts GM00593 assessed as fold increase in enzyme activity using 4MUGPS as substrate at 10 uM incubated for 48 hrs by fluorescence assay relative to control
Homo sapiens [10] = species on record: Homo sapiens; assay: Chaperone activity at GALNS p.R61W/p.W405_T406 deletion mutant in mucopolysaccharidosis IVA patient-derived fibroblasts GM01361 assessed as fold increase in enzyme activity using 4MUGPS as substrate at 0.1 uM incubated for 48 hrs by fluorescence assay relative to control
[11] = target: T1, N-acetylgalactosamine-6-sulfatase (Homo sapiens); assay: Chaperone activity at recombinant human GALNS expressed in HEK293 cells assessed as fold increase in extracellular enzyme activity using 4MUGPS as substrate at 10 uM incubated for 48 hrs by fluorescence assay relative to control; format: cell-based
[12] = target: T1, N-acetylgalactosamine-6-sulfatase (Homo sapiens); assay: Chaperone activity at GALNS in human fibroblasts assessed as change in lysosomal mass at 0.01 to 10 uM incubated for 36 hrs by deep red Lysotracker based flow cytometric analysis
[13] = Protein binding in plasma of parkinson's disease patients; format: ADME, cell-free; conditions: human, read-out: PPB
Homo sapiens [14] = species on record: Homo sapiens; assay: as §2, with “mucopolysaccharidosis IVA” for “mucopolysaccharidosis”, “0.01” for “0.1”; set-up: scale not given: the % may be the effect or the level left

## CC(C)C[C@H]1C(=O)N2CCC[C@H]2[C@]2(O)O[C@](NC(=O)[C@@H]3C=C4c5cccc6[nH]c(Br)c(c56)C[C@H]4N(C)C3)(C(C)C)C(=O)N12 [BROMOCRIPTINE]
[1]
  fold change (FC): 1.36
Homo sapiens [2]
  Activity: 10.5%
Homo sapiens [3]
  Activity: 7.3%
[4]
  concentration: 10 to 250 nM
Homo sapiens [5]
  Activity: inactive
[6]
  inhibition: 30%
Homo sapiens [7]
  Activity: inactive
Homo sapiens [8]
  Activity: 18.2%
Homo sapiens [9]
  fold change (FC): 1.52
Homo sapiens [10]
  fold change (FC): 1.5
[11]
  fold change (FC): 1.48
[12]
  Activity: inactive
[13]
  fraction unbound: 0.04 to 0.1
Homo sapiens [14]
  Activity: 11.7%
